Assay [1] concerns MCF7 tumor. The experiment in a line: MCF7 human breast adenocarcinoma xenograft model. The assay is classed as in vivo, BALB/c nude mice. The conditions noted are these: compound 47 3 mg/kg i.p. every day; fulvestrant 2.5 mg/dose s.c. every day; alone or both. The procedure: MCF7 cells (1×10^7) mixed with matrigel (50:50) were subcutaneously implanted in the right flank of female BALB/c nude mice. Tumor-bearing mice were randomized and treated with compound 47 (3 mg/kg, intraperitoneally every day), fulvestrant (2.5 mg/dose, subcutaneously every day), or both compound 47 and fulvestrant when the average tumor volume reached 117 mm^3 (N=8 per group). Tumor volume and body weight were measured twice per week. […] On day 28, tumor volume of the compound 47 with fulvestrant combination group was reduced compared to the compound 47 alone group or the fulvestrant treatment group.

The test system of assay [2] is OVCAR3 tumor. The assay can be described thus: OVCAR3 high-grade serous ovarian cancer cell line-derived xenograft model. The assay is classed as in vivo, BALB/c nude mice. The conditions noted are these: compound 47 3 mg/kg i.p. every day; olaparib 100 mg/kg orally every day; alone or both. The procedure:
OVCAR3 cells (1×10^7) mixed with matrigel (50:50) were subcutaneously implanted in the right flank of female BALB/c nude mice. Tumor-bearing mice were randomized and treated with compound 47 (3 mg/kg, intraperitoneally every day), olaparib (100 mg/kg, orally every day), or both compound 47 and olaparib when the average tumor volume reached 173 mm^3 (N=8 per group). Tumor volume and body weight were measured twice per week.

In assay [3] the test system is DU145 tumor. The experiment in a line: DU145 castration-resistant prostate cancer cell line-derived xenograft model. The assay is classed as in vivo, BALB/c nude mice. As to conditions: compound 47 3 mg/kg i.p. every day; docetaxel 15 mg/kg i.p. once a week; alone or both. As for the experimental part: DU145 cells (1×10^7) mixed with matrigel (50:50) were subcutaneously implanted in the right flank of male BALB/c nude mice. Tumor-bearing mice were randomized and then treated with compound 47 (3 mg/kg, intraperitoneally every day), docetaxel (15 mg/kg, intraperitoneally once a week), or both compound 47 and docetaxel when the average tumor volume reached 154 mm^3 (N=8 per group). Tumor volume and body weight were measured twice per week.

The subject of assay [4] is phosphorylated form of H2AX (Ser139) in RENCA cells. The experiment in a line: Western blot analysis of phosphorylated H2AX. The assay is classed as cell-based, mouse. The conditions noted are these: 48 hours. The procedure: RENCA cells were treated with various concentrations of compound 47 in 5% CO2 at 37′C for 48 hours. Cells were washed with ice-cold PBS twice and lysis buffer was added. Cells were collected and kept on the ice for 30 min. Lysed cells were centrifuged at 12,000 rpm at 4′C for 10 minutes, and then the supernatant was collected. Protein concentrations were quantified using a BCA protein Quantification kit. Equal amounts of protein were fractionated by SDS-PAGE, transferred to a PVDF membrane, and then treated with anti-phospho-H2AX (Ser139) antibody. The phosphorylated form of H2AX protein was detected by HRP-conjugated secondary antibody and the signal was obtained with Super Signal Western blot enhancer. The image was acquired by ImageQuant™ LAS 4000.

Assay [5] concerns the target T1, CDK7 (Mus musculus, UniProt Q03147).
T1 construct: endogenous in cells; host or cells: RENCA cells
T1 sequence (Q03147 2-346 limits assumed): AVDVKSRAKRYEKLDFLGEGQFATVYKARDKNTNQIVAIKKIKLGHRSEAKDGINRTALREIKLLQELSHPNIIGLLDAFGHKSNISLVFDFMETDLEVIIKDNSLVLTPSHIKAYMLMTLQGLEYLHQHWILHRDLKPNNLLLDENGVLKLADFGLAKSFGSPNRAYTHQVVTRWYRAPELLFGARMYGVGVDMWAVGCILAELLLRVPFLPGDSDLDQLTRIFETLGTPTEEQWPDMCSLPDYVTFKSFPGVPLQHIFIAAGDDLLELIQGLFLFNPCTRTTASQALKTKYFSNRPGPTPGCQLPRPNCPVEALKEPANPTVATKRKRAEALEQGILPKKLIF
T1 sequence (Q61458 1-323 partner): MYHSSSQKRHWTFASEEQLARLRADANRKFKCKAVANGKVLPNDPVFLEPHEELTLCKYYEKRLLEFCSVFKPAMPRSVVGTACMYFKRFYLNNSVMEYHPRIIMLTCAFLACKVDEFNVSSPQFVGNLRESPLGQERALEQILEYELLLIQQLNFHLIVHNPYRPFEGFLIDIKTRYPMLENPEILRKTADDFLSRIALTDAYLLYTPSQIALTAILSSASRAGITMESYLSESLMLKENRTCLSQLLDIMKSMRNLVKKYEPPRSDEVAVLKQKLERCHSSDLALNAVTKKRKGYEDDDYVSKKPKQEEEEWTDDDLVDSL
T1 sequence (P51949 1-309 partner): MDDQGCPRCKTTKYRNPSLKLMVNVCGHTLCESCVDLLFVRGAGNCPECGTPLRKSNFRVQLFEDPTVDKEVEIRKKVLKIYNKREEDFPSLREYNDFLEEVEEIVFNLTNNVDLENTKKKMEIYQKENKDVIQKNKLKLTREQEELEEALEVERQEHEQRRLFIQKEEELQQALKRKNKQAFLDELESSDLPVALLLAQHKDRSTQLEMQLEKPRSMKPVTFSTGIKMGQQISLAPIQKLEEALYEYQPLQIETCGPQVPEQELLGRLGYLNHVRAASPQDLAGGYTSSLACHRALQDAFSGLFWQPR
The experiment in a line: Target occupancy assay (Bio-compound 3 pull-down, anti-CDK7 blot). The assay is classed as cell-based. The conditions noted are these: RENCA cells treated 4 hours; lysate incubated with 1 μM Bio-compound 3. The procedure: RENCA cells were treated with various concentrations of compound 47 for 4 hours. Cells were washed with ice-cold PBS twice and then lysed with ice-cold lysis buffer (0.025M Tris, 0.15M NaCl, 0.001M EDTA, 1% NP-40, 5% glycerol, pH 7.4) with protease and phosphatase cocktails (Sigma-Aldrich). Lysed cells were centrifuged at 12,000 rpm at 4′C for 10 minutes and then the supernatant was collected. Protein concentrations were determined using a BCA protein quantification kit (Thermo Fisher Scientific, #23227). Equal amounts of protein were incubated with 1 μM of biotinylated compound 3 (Bio-compound 3; biotinylated analog of compound 47) at 4′C overnight and then immunoprecipitated with streptavidin-agarose bead. Pull-downed proteins were eluted, loaded to SDS-PAGE, transferred to a PVDF membrane (MilliporeSigma), and then treated with anti-CDK7 antibody. CDK7 protein was detected by HRP-conjugated secondary antibody. The image was obtained by ImageQuant™ LAS4000.

The subject of assay [6] is RENCA tumor. The assay can be described thus: RENCA syngeneic renal tumor mouse model. The assay is classed as in vivo, BALB/c mice. As to conditions: compound 47 10 mg/kg i.p. every day; anti-PD-1 antibody 10 mg/kg i.p. twice a week; alone or both. The procedure: RENCA cells (1×10^5) were subcutaneously implanted in the right flank of BALB/c mice. Tumor-bearing mice were randomized and then treated with compound 47 (10 mg/kg, intraperitoneally every day), anti-PD-1 antibody (10 mg/kg, intraperitoneally twice a week, clone: RMP1-14, Bio X Cell), or both compound 47 and anti-PD-1 antibody when the average tumor volume reached 31 mm^3 (N=7 or 8 per group). Control mice were treated with vehicle and rat IgG2a isotype control antibody (clone: 2A3, Bio X Cell). Tumor volume and body weight were measured twice per week.

Assay [7] deals with RENCA cells. The assay can be described thus: Cell viability assay (CellTiter-Glo). The format is cell-based. The conditions noted are these: Mus musculus, 72 hours, read-out: IC50 of RENCA cell growth/viability. The procedure: RENCA renal adenocarcinoma were treated with various concentrations of compound 47 for 72 hours. Cell viability was measured using the CellTiter-Glo assay system (Promega). Luminescence units were normalized to those of untreated cells and are presented as the percentage of cell viability. IC50 was calculated using the dose-response curve generated by GraphPad Prism.

The subject of assay [8] is g-H2AX foci in OVCAR3 cells. The assay can be described thus: g-H2AX foci imaging in OVCAR3 cells after cisplatin. The format is cell-based, human. The conditions noted are these: 100 nM cisplatin 24 hours, wash, then Compound 47, 24, 48 and 72 hours. The procedure:
OVCAR3 cells were treated with DMSO or 100 nM of cisplatin for 24 hours. Cells were then washed with culture media and treated with Compound 47 at various concentrations. Cells were collected 24, 48 and 72 hours after cisplatin wash and then stained with 4′,6-diamidino-2-phenylindole (DAPI) and anti-phospho-histone H2AX ([…]). g-H2AX foci inside the nucleus were identified by Alexa-568 staining. Fluorescence images of g-H2AX foci were captured using a confocal imaging system, CQ1 (×40 objective).

In assay [9] the test system is g-H2AX or 53BP1 foci in PC3 cells. The experiment in a line: g-H2AX / 53BP1 foci imaging in PC3 cells after X-ray irradiation. The format is cell-based, human. The conditions noted are these: Compound 47 1 hour then X-ray 8, 4 or 2 Gy, 24 hours after irradiation. The procedure:
PC3 cells were treated with DMSO or various concentrations of Compound 47 for 1 hour. Cells were then irradiated with X-ray at set of 225 KV, 17.7 mA for 5 min using a Faxitron Specimen Radiography System (8 Gy, 4 Gy and 2 Gy irradiation, FIGS. 7A-7C, and 7D-7F, respectively). Cells were collected at 1-, 4-, 6-, 24- and 48-hour post X-ray irradiation and stained with HOECHST and anti-phospho-histone H2AX ([…]) or 53BP1. g-H2AX or 53BP1 foci inside the nucleus were identified with Alexa Flour488. Fluorescence images of the foci were obtained using Opera Phenix 3 High-content screening system (×40 objective) and the average granule number f SD of g-H2AX (FIG. 7A to 7C) or of 53BP1 (FIG. 7D to 7F) per cell was determined using MetaXpress software.

Molecules are shown by their SMILES.

As to `C[C@]12CC[C@@H]3c4ccc(O)cc4C[C@@H](CCCCCCCCC[S+]([O-])CCCC(F)(F)C(F)(F)F)[C@H]3[C@@H]1CC[C@@H]2O` (stereo partly drawn) [fulvestrant, reference compound], in [1], the TGI is listed as 81%.
For `O=C(c1cc(Cc2n[nH]c(=O)c3ccccc23)ccc1F)N1CCN(C(=O)C2CC2)CC1` [olaparib, reference compound], the TGI in [2] is listed as 38%.
Regarding `CC(=O)O[C@@]12CO[C@@H]1C[C@H](O)[C@@]1(C)C(=O)[C@H](O)C3=C(C)[C@@H](OC(=O)[C@H](O)[C@@H](NC(=O)OC(C)(C)C)c4ccccc4)C[C@@](O)([C@@H](OC(=O)c4ccccc4)[C@H]21)C3(C)C` [docetaxel, reference compound], in assay [3], the TGI turned out to be 25%.
`C=C(F)C(=O)Nc1ccc2c(-c3ccccc3CNc3nc(NC[C@H]4CCNC[C@@H]4O)nc4c(C(C)C)cnn34)nccc2c1` [Compound 47]: the “phosphorylation of H2AX at Serine-139” value in assay [4] was “induced phosphorylation of H2AX at the Serine-139 residue in a dose dependent manner”. Besides, the CDK7 occupancy entry in [5] was “in a dose dependent manner”. In addition, the TGI in [1] was determined as 81%; in assay [3], 61%; in assay [2], 36%. In addition, the “tumor growth inhibition (TGI)” value in assay [6] was 50.2%. The IC50 in assay [7] came to 20 nM. Besides, the “percentage of g-H2AX-positive cells (g-H2AX foci)” value in assay [8] is “increased the percentage of g-H2AX foci in a time- and dose-dependent manner”. Besides, the “DNA damage sustaining effect (granule number of g-H2AX or 53BP1 per cell)” value in assay [9] is “significant DNA damage sustaining effects”.

Source of the values: patent publication US20260041693A1, “COMBINATION THERAPY OF CDK7 INHIBITORS WITH OTHER ANTI-CANCER THERAPIES” (QURIENT CO., LTD., priority 2022, published 2026).
